In paper PMC6025622, “A Novel Atypical PKC-Iota Inhibitor, Echinochrome A, Enhances Cardiomyocyte Differentiation from Mouse Embryonic Stem Cells” (Marine Drugs, 2018) one finds Kd data, which are given here for one compound.

Structures are written as SMILES.

For this test, the target named is T1, atypical protein kinase C-iota (PKCι) (Homo sapiens, UniProt P41743).
T1 construct: gene PRKCI; full-length protein
T1 sequence (P41743 2-596): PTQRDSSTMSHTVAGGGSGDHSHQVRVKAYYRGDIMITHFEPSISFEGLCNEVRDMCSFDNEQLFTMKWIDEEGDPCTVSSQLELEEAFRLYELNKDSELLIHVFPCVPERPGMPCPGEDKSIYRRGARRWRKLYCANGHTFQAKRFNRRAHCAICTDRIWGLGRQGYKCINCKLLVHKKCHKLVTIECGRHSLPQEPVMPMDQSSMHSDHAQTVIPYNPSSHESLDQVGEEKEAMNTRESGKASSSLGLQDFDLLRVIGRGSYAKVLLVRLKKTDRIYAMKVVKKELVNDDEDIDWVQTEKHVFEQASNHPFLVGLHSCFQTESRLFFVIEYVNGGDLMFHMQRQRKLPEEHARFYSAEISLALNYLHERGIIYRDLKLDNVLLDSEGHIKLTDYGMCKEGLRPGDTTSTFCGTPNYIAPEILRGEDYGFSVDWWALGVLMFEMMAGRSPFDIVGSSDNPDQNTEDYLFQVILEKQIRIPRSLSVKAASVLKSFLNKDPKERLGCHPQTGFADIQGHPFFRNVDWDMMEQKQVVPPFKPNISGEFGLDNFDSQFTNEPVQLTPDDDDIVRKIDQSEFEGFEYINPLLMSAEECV
Put plainly: surface plasmon resonance, PKCι immobilized by amine coupling; also cell-free kinase assay IC50 […]. It is filed as binding. On the technique in general: SPR reads the build-up and loss of mass on a sensor chip optically.

In general, Kd refers to a measure of binding affinity in units of concentration. The low end stands for a tighter complex, the high end for a looser complex. In turn, `CCc1c(O)c(O)c2c(c1O)C(=O)C(O)=C(O)C2=O` [Ech A, 6-ethyl-2,3,5,7,8-pentahydroxy-1,4-naphthoquinone] came in with a Kd of 6.3 nM.
